Test [1] relates to ApoE gene-deficient mice. It is filed as in vivo. To be noted: for Amount of lipid peroxide in blood (MDA concentration (μM)): ApoE gene-deficient mice on high-cholesterol diet, oral, once a day, 30 μg per day, serum 14 days after start of administration, TBARS assay kit; for Effect of inhibiting formation of a lipid peroxide in blood (in words, versus negative sample): ApoE gene-deficient mice, oral 30 μg per day, 14 days after start of administration. The text has this:
The actions of inhibiting formation of a lipid peroxide of various test samples including the antioxidant of the present invention can be evaluated by using, as an index, the amount of a thiobarbituric acid (TBA) reactive substance (TBARS), for example. Specifically, it may be defined that the larger the amount of the TBARS, the larger the amount of a lipid peroxide formed.
Examples of the TBARS include malondialdehyde (MDA) which reacts with TBA under high-temperature and acidic conditions and is a natural by-product of a lipid peroxidation. An MDA-TBA adduct can be detected by measurement of an absorbance at 530 to 540 nm to perform colorimetric measurement of MDA.
Also, the action of inhibiting formation of a lipid peroxide of a test sample can be evaluated using ApoE gene-deficient mice, which are often used as model animals which develop arteriosclerosis by hypercholesterolemia (hyper-LDL-cholesterolemia) (for example, see Reference Document 1: “Saibokogaku (Cell Engineering),” Extra Issue, “Medical Experiment Manual” series, Strategy for Study of Arteriosclerosis+Hyperlipidemia, Shujunsha Co., 1st edition, 1st impression, published on Apr. 1, 1996, pp. 441-443).
Further, in the model mice, the lipid peroxide level is higher than that of normal mice, and formation of atherosclerotic lesions (plagues) in the artery is observed with time. Therefore, the action of inhibiting formation of a lipid peroxide of a test sample can be evaluated by administering the test sample to the model mice and measuring a lipid peroxide in blood of the model mice.
Model animals which develop arteriosclerosis, ApoE gene-deficient mice, were used to examine the action of inhibiting formation of a lipid peroxide of 3-O-β-D-glucopyranosyl-4-methylergost-7-en-3-ol.
3-O-β-D-glucopyranosyl-4-methylergost-7-en-3-ol manufactured in Production Example 1 above was used as a test sample, and Mevalotin (DAIICHI SANKYO COMPANY, LIMITED), which is an HMG-CoA reductase inhibitor, was used as a control sample.
Those samples were separately dissolved in physiological saline so that the concentration of each compound was 30 μg/ml and were used for a test. Note that physiological saline was used as a negative sample.
(§1) Six-week-old male ApoE gene-deficient mice (purchased from Japan SLC, Inc.) were preliminarily fed with a high-cholesterol diet (manufactured by Research Diets, Inc.) for 2 weeks and divided into groups each of 15 mice.
To mice of each group, the solution including the test sample, control sample, or negative sample was separately administered orally once a day for 3 consecutive days using medical probes in an amount of 1 ml per 25 g of mouse body weight. […] Then, the amount of TBARS was measured using OxiSelect TBARS Assay Kit (manufactured by […]). […]

The test system of test [2] is ApoE gene-deficient mice. Briefly: Number of atherosclerotic lesions (plaques) in thoracic aorta of ApoE gene-deficient mice. To be noted: oral once a day for 39 consecutive days; for Number of plaques formed in thoracic aorta: ApoE gene-deficient mice on high-cholesterol diet, 1 ml of 30 μg/ml per 25 g body weight, Oil red staining 40 days after start; for Effect on plaque formation (in words, versus negative sample): ApoE gene-deficient mice. It is filed as in vivo. On the procedure:
In addition, it is generally known that a primary lesion of arteriosclerosis is caused by oxidized LDL. Therefore, it is also possible to evaluate the action of reducing a risk of arteriosclerosis through inhibiting formation of a lipid peroxide of the test sample by counting the number of atherosclerotic lesions (plaques) in the artery of each model mouse treated with the test sample.
In Example 2, 3-O-β-D-glucopyranosyl-4-methylergost-7-en-3-ol was evaluated on the effect of reducing a risk of arteriosclerosis through the effect of inhibiting a lipid peroxide by counting the number of atherosclerotic lesions (plaques) in the artery using known arteriosclerosis model animals, ApoE gene-deficient mice.
A test sample, a control sample, and a negative sample were prepared in the same way as in Example 1 above and were each used for a test.
as §1
Each of the sample solutions including the test sample, control sample, and negative sample was separately administered orally once a day for 39 consecutive days using medical probes in an amount of 1 ml per 25 g of mouse body weight. Forty days after the start of administration, the thoracic aorta part was fixed with formalin and stained with Oil red, and the number of plaques was counted.
The test results of this example are shown in Tale 2.

Turning to `CC[C@H](C)C(=O)O[C@H]1C[C@H](O)C=C2C=C[C@H](C)[C@H](CC[C@@H](O)C[C@@H](O)CC(=O)[O-])[C@H]21.[Na+]` [Control sample, reference compound], in the test with ApoE gene-deficient mice [1], the “Amount of lipid peroxide in blood (MDA concentration (μM))” value is 0.93 ± 0.05 µM and the “Effect of inhibiting formation of a lipid peroxide in blood (in words, versus negative sample)” value is on record as “a significant decrease in amount of a lipid peroxide in blood was not observed”. In the test on ApoE gene-deficient mice [2], the “Number of plaques formed in thoracic aorta” value (shortened to “Number of plaques formed”) was determined as 10.6 ± 3.2 and the “Effect on plaque formation (in words, versus negative sample)” value was “no significant difference although plaque formation was found to decrease”.
In the case of `CC1C(O[C@@H]2O[C@H](CO)[C@@H](O)[C@H](O)[C@H]2O)CC[C@@]2(C)C1CC=C1[C@@H]3CC[C@H]([C@H](C)CC[C@H](C)C(C)C)[C@@]3(C)CC[C@@H]12` (stereo partly drawn) [Test sample, 3-O-β-D-glucopyranosyl-4-methylergost-7-en-3-ol], in the test with ApoE gene-deficient mice [1], the “Amount of lipid peroxide in blood (MDA concentration (μM))” value was 0.51 ± 0.22 µM and the “Effect of inhibiting formation of a lipid peroxide in blood (in words, versus negative sample)” value is reported as “the effect of inhibiting formation of a lipid peroxide in blood was clearly confirmed”. Further, in the test on ApoE gene-deficient mice [2], the “Number of plaques formed” value was determined as 5.8 ± 1.6 and the “Effect on plaque formation (in words, versus negative sample)” value was “had an effect of inhibiting plaque formation on the arterial endothelium”. In addition, the “Number of plaques formed” value in the test with ApoE gene-deficient mice [2] (listed as test sample) is 5.8.

The values above are taken from patent US8486899B2, “Antioxidant” (Morinaga Milk Industry Co., Ltd., priority 2008, dated 2013).
